Literature values, collected in patent US20260102372A1, “NEW FORMULATIONS FOR MENTAL DISORDERS OR MENTAL ENHANCEMENT” (TACTOGEN INC, priority 2023, published 2026).

How the values were obtained:
PTSD = conditions: MDMA arm
[1] = pooled Phase 2 trials
[2] = not given; remark: listed apart in the source
[3] = target: cytochrome p450 isozyme 2D6 (CYP2D6) (Homo sapiens, UniProt P10635)
[4] = nonhuman animals

Chain of cytochrome p450 isozyme 2D6 (CYP2D6) (P10635 whole entry): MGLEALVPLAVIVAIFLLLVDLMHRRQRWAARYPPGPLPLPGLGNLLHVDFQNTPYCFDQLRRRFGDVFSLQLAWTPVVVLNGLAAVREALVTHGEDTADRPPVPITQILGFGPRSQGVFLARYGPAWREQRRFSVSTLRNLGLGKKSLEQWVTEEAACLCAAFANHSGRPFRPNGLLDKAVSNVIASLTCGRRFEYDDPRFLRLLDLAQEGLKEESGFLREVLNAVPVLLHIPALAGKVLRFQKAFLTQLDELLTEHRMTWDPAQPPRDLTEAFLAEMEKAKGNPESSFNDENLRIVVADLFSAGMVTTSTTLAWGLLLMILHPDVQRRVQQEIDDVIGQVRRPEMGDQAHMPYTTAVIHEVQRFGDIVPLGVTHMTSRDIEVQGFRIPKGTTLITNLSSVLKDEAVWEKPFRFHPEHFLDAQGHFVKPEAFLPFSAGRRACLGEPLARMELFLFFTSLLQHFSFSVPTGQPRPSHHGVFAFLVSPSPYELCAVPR

CNC(C)Cc1ccc2c(c1)OCO2 (stereo not shown) [MDMA, [1-(2H-1,3-benzodioxol-5-yl)propan-2-yl](methyl)amine]
participants with sufficient improvement that they were no longer diagnosable with PTSD (PTSD; first of two Phase 3 trials (Mitchell et al. 2021)): one-third | participants improved (PTSD; first of two Phase 3 trials, MDMA-assisted therapy for PTSD (Mitchell et al. 2021)): 88% | duration of acute psychological and emotional effects (average) (after 75 or 125 mg MDMA, standard deviation 1.3 hours (Vizeli & Liechti 2017)): 4.2 hours | time by which acute emotional effects have largely resolved (after administration of MDMA): ≤ 8 h | nausea occurred in participants ([1]; 29 of 72 participants (Mithoefer et al. 2019)): 40.3% | anxiety occurred in participants ([1]; 52 of 72 participants (Mithoefer et al. 2019)): 72.2% | half-life in plasma [2]: seven to nine | CYP2D6 interaction [3]: both a substrate and inhibitor | markers of serotonergic functioning (brain serotonin, tryptophan hydroxylase, serotonin transporter density) [4]: decreases | measures of oxidative stress [4]: increases
